Test [1] deals with T1, GPR43 (Homo sapiens, UniProt O15552).
T1 construct: expressed in transfected cells
T1 sequence (O15552 1-330): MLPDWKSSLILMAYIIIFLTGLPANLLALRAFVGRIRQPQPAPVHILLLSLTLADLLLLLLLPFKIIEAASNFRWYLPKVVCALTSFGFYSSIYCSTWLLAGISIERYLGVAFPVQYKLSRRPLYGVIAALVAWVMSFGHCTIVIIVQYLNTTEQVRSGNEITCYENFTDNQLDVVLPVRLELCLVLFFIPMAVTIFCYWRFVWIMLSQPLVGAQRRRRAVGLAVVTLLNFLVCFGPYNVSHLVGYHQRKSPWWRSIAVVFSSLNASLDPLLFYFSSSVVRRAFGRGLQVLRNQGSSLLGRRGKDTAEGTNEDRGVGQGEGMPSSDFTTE
The test is described as follows: Calcium mobilization assay without probenecid. Format: cell-based. The following applies: GPR43 stably expressing cells, triggered with sodium acetate at EC80, read-out: GPR43 assay without probenicid IC50. The method, then:
The following assay can be used for determination of GPR43 activation. The assay measures intracellular calcium release induced by activation of GPR43. On day 1, GPR43 stably expressing cells were detached with mild trypsinization (Trypsin, 0.25% with EDTA 4Na, 5× diluted in PBS) centrifuged at 1000 rpm for 5 min and resuspended at 6.000 cells/25 μL medium (DMEM supplemented with 10% FBS, 10 μg/mL puromycin and 1% Pen/Strep). The cells were distributed in poly-D-lysine coated 384 well plates (black with clear bottom, 25 μL/well) and incubated overnight at 37° C. 10% CO2. On day 2, 25 μL of a fluorescent Ca^2+ indicator (Calcium 4 assay; Molecular Devices) was added on top of the cells and incubated for 2 h at 37° C. Subsequently, compounds at increasing concentration (10 μL/well) were added to the plate and incubated for 15 min at 37° C. Finally the cells were triggered with sodium acetate at EC80 concentration (concentration which gives 80% of the activity of the GPR43) and the Ca-flux was measured simultaneously to the trigger injection on a fluorescence plate reader (FlexStation3), this measures the antagonist activity of the compounds. To measure agonist activity of the compounds, compound was added to the well and the Ca-flux was measured simultaneously to the injection of compound.

The target of test [2] is T1, GPR43. The test can be described thus: Calcium mobilization assay with probenecid. The class given is cell-based. Conditions: GPR43 stably expressing cells; triggered with sodium acetate at EC80; 2.5 mM probenecid; read-out: GPR43 assay with probenicid IC50. The method, boiled down: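 […] being added at rising concentrations to a GPR43 stable line. Before this, cells were dye-loaded (Calcium 4 with 2.5 mM probenecid) for 2 h at 37 °C after overnight plating.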

The structures appear in SMILES notation. A value given as a limit tells only on which side of the number the result lay.

Drawing on patent US8759334B2, “Compounds useful for the treatment of metabolic and inflammatory diseases” (Galapagos NV, priority 2011, dated 2014), this text covers IC50 for 26 compounds.

Regarding `CC1(C(=O)NCc2ccc(Cl)cc2)CCN1C(=O)Oc1ccc(Cl)cc1` (centres unmarked) [Compound 2, 2-(4-Chloro-benzylcarbamoyl)-2-methyl-azetidine-1-carboxylic acid 4-chloro-phenyl ester], the IC50 at GPR43 [1] and on GPR43 [2] was more than 1000 nM each time.
With `CC1(C(=O)Nc2ccc(Cl)cc2)CCN1C(=O)Cc1ccc(Cl)cc1Cl` (centres unmarked) [Compound 4, 1-[2-(2,4-Dichloro-phenyl)-acetyl]-2-methyl-azetidine-2-carboxylic acid (4-chloro-phenyl)-amide], the IC50 at GPR43 [1] and at GPR43 [2] was more than 1000 nM throughout.
Consider `Cc1cc(C)cc(CC(=O)N2CCC2(C)C(=O)N(C)Cc2cccc(Cl)c2)c1` (centres unmarked) [Compound 5, 1-[2-(3,5-Dimethyl-phenyl)-acetyl]-2-methyl-azetidine-2-carboxylic acid (3-chloro-benzyl)-methyl-amide], for which the IC50 on GPR43 [1] and at GPR43 [2] was more than 1000 nM in each case.
On to `Cc1ccc(CN(C)C(=O)C2(C)CCN2C(=O)Cc2cc(C)cc(C)c2)cc1` (centres unmarked) [Compound 6, 1-[2-(3,5-Dimethyl-phenyl)-acetyl]-2-methyl-azetidine-2-carboxylic acid methyl-(4-methyl-benzyl)-amide], for which the IC50 was 501 to 1000 nM on GPR43 [1] and more than 1000 nM at GPR43 [2].
For `Cc1cc(C)cc(CC(=O)N2CCC2(C)C(=O)N(C)Cc2ccc(C(F)(F)F)cc2)c1` (centres unmarked) [Compound 7, 1-[2-(3,5-Dimethyl-phenyl)-acetyl]-2-methyl-azetidine-2-carboxylic acid methyl-(4-trifluoromethyl-benzyl)-amide] the same measures were 101 to 500 nM and 101 to 500 nM.
For `CN(Cc1ccc(Cl)cc1)C(=O)C1(C)CCN1C(=O)Cc1ccccc1Cl` (centres unmarked) [Compound 9, 1-[2-(2-Chloro-phenyl)-acetyl]-2-methyl-azetidine-2-carboxylic acid (4-chloro-benzyl)-methyl-amide] the same measures were more than 1000 nM and more than 1000 nM.
On to `CN(Cc1ccc(Cl)cc1)C(=O)C1(C)CCN1C(=O)Cc1cccc(Cl)c1` (centres unmarked) [Compound 10, 1-[2-(3-Chloro-phenyl)-acetyl]-2-methyl-azetidine-2-carboxylic acid (4-chloro-benzyl)-methyl-amide], for which the IC50 on GPR43 [1] and on GPR43 [2] was more than 1000 nM throughout.
On to `CN(Cc1ccc(Cl)cc1)C(=O)C1(C)CCN1C(=O)Cc1ccc(Cl)cc1` (centres unmarked) [Compound 11], for which the IC50 on GPR43 [1] and on GPR43 [2] was more than 1000 nM throughout.
Take `CN(Cc1ccc(Cl)cc1)C(=O)C1(C)CCN1C(=O)Cc1ccc(F)c(F)c1` (centres unmarked) [Compound 12, 1-[2-(3,4-Difluoro-phenyl)-acetyl]-2-methyl-azetidine-2-carboxylic acid (4-chloro-benzyl)-methyl-amide]: the IC50 on GPR43 [1] and on GPR43 [2] was more than 1000 nM throughout.
As to `CN(Cc1ccc(Cl)cc1)C(=O)C1(C)CCN1C(=O)Cc1ccc(-c2ccc(F)cc2)cc1` (centres unmarked) [Compound 15, 1-[2-(4′-Fluoro-biphenyl-4-yl)-acetyl]-2-methyl-azetidine-2-carboxylic acid (4-chloro-benzyl)-methyl-amide], the half-maximal inhibitory concentration (IC50) at GPR43 [1] and on GPR43 [2] was more than 1000 nM in each case.
On to `CN(Cc1ccc(Cl)cc1)C(=O)C1(C)CCN1C(=O)Cc1ccccc1OCc1ccccc1` (centres unmarked) [Compound 16, 1-[2-(2-Benzyloxy-phenyl)-acetyl]-2-methyl-azetidine-2-carboxylic acid (4-chloro-benzyl)-methyl-amide], for which the IC50 on GPR43 [1] and at GPR43 [2] was more than 1000 nM in each case.
For the compound `CN(Cc1ccc(Cl)cc1)C(=O)C1(C)CCN1C(=O)Cc1ccccc1I` (centres unmarked) [Compound 17, 1-[2-(2-Iodo-phenyl)-acetyl]-2-methyl-azetidine-2-carboxylic acid (4-chloro-benzyl)-methyl-amide], the IC50 at GPR43 [1] and on GPR43 [2] was more than 1000 nM throughout.
In the case of `CN(Cc1ccc(Cl)cc1)C(=O)C1(C)CCN1C(=O)Cc1ccc(Cl)c(Cl)c1` (centres unmarked) [Compound 18, 1-[2-(3,4-Dichloro-phenyl)-acetyl]-2-methyl-azetidine-2-carboxylic acid (4-chloro-benzyl)-methyl-amide], the IC50 on GPR43 [1] and on GPR43 [2] was more than 1000 nM in each case.
In the case of `CN(Cc1ccc(Cl)cc1)C(=O)C1(C)CCN1C(=O)Cc1ccc(-c2ccccc2)cc1` (centres unmarked) [Compound 20, 1-(2-Biphenyl-4-yl-acetyl)-2-methyl-azetidine-2-carboxylic acid (4-chloro-benzyl)-methyl-amide], the IC50 on GPR43 [1] and at GPR43 [2] was more than 1000 nM in each case.
Take `CN(Cc1ccc(Cl)cc1)C(=O)C1(C)CCN1C(=O)Cc1ccc(-c2cccc(Cl)c2)cc1` (centres unmarked) [Compound 21, 1-[2-(3′-Chloro-biphenyl-4-yl)-acetyl]-2-methyl-azetidine-2-carboxylic acid (4-chloro-benzyl)-methyl-amide]: the IC50 on GPR43 [1] and at GPR43 [2] was more than 1000 nM in each case.
Regarding `CN(Cc1ccc(Cl)cc1)C(=O)C1(C)CCN1C(=O)Cc1ccc(-c2cccc(C#N)c2)cc1` (centres unmarked) [Compound 22, 1-[2-(3′-Cyano-biphenyl-4-yl)-acetyl]-2-methyl-azetidine-2-carboxylic acid (4-chloro-benzyl)-methyl-amide], the IC50 at GPR43 [1] and on GPR43 [2] was more than 1000 nM throughout.
As for `COc1ccc(-c2ccc(CC(=O)N3CCC3(C)C(=O)N(C)Cc3ccc(Cl)cc3)cc2)cc1` (centres unmarked) [Compound 23, 1-[2-(4′-Methoxy-biphenyl-4-yl)-acetyl]-2-methyl-azetidine-2-carboxylic acid (4-chloro-benzyl)-methyl-amide], the IC50 on GPR43 [1] and at GPR43 [2] was more than 1000 nM in each case.
Regarding `CN(Cc1ccc(Cl)cc1)C(=O)C1(C)CCN1C(=O)Cc1ccc(-c2ccc(C#N)cc2)cc1` (centres unmarked) [Compound 24, 1-[2-(4′-Cyano-biphenyl-4-yl)-acetyl]-2-methyl-azetidine-2-carboxylic acid (4-chloro-benzyl)-methyl-amide], the IC50 at GPR43 [1] and at GPR43 [2] was more than 1000 nM each time.
As for `Cc1ccccc1-c1ccc(CC(=O)N2CCC2(C)C(=O)N(C)Cc2ccc(Cl)cc2)cc1` (centres unmarked) [Compound 25, 2-Methyl-1-[2-(2′-methyl-biphenyl-4-yl)-acetyl]-azetidine-2-carboxylic acid (4-chloro-benzyl)-methyl-amide], the IC50 at GPR43 [1] and at GPR43 [2] was more than 1000 nM throughout.
On to `COC(=O)c1cccc(-c2ccc(CC(=O)N3CCC3(C)C(=O)N(C)Cc3ccc(Cl)cc3)cc2)c1` (centres unmarked) [Compound 26, methyl 4′-(2-(2-((4-chlorobenzyl)(methyl)carbamoyl)-2-methylazetidin-1-yl)-2-oxoethyl)biphenyl-3-carboxylate], for which the IC50 at GPR43 [1] and on GPR43 [2] was more than 1000 nM in each case.
With `CN(Cc1ccc(Cl)cc1)C(=O)C1(C)CCN1C(=O)Cc1cccc(-c2ccccc2)c1` (centres unmarked) [Compound 27, 1-(2-Biphenyl-3-yl-acetyl)-2-methyl-azetidine-2-carboxylic acid (4-chloro-benzyl)-methyl-amide], the IC50 on GPR43 [1] and at GPR43 [2] was more than 1000 nM in each case.
Take `Cc1cc(C)cc(CC(=O)N2CCC2(C)C(=O)N(CCC(=O)O)Cc2ccc(Cl)cc2)c1` (centres unmarked) [Compound 65, 3-((4-chloro-benzyl)-{1-[2-(3,5-dimethyl-phenyl)-acetyl]-2-methyl-azetidine-2-carbonyl}-amino)-propionic acid]: on GPR43 [1], the IC50 is more than 1000 nM.
The same measure, in the same setting: the same measure for `CC1(C(=O)N(CCCO)Cc2ccc(Cl)cc2)CCN1C(=O)Cc1csc2ccccc12` (centres unmarked) [Compound 70, 1-(2-Benzo[b]thiophen-3-yl-acetyl)-2-methyl-azetidine-2-carboxylic acid (4-chloro-benzyl)-(3-hydroxy-propyl)-amide]: 101 to 500 nM.
The same measure, in the same setting: the same measure for `Cc1cc(C)cc(CC(=O)N2CC[C@@]2(C)C(=O)N(CC(=O)O)Cc2ccc(Cl)cc2)c1` [Compound 81a, ((4-Chloro-benzyl)-{(S)-1-[2-(3,5-dimethyl-phenyl)-acetyl]-2-methyl-azetidine-2-carbonyl}-amino)-acetic acid]: more than 1000 nM; for `CN(Cc1ccc(Cl)cc1)C(=O)C1(C)CCN1C(=O)Cc1csc2ccc(Cl)cc12` (centres unmarked) [Compound 92, 1-[2-(5-Chloro-benzo[b]thiophen-3-yl)-acetyl]-2-methyl-azetidine-2-carboxylic acid (4-chloro-benzyl)-methyl-amide]: more than 1000 nM.
Still for that read-out and setting: the same measure for `Cc1ccc2scc(CC(=O)N3CCC3(C)C(=O)N(C)Cc3ccc(Cl)cc3)c2c1` (centres unmarked) [Compound 93, 1-[2-(5-Methyl-benzo[b]thiophen-3-yl)-acetyl]-2-methyl-azetidine-2-carboxylic acid (4-chloro-benzyl)-methyl-amide]: more than 1000 nM.
